One data set relates to A549 cell line. The data set can be described thus: Viability of A549 cells, XTT-based assay, with or without TRAIL. The format is cell-based, human. Here is the method: FIG. 4: C12 sensitizes long cancer cell line A549 to TRAIL. (A) Viability of cells was examined after 24-hour incubation in media containing TRAIL (50 ng/ml), compound (C12) (1 μM), compound (C12R) (25 μM) or the indicated combination of TRAIL (T) with (C12) or (C12R). The chemical structures of (C12) and its stereoisomer (C12R) are shown on the right. (B) Viability of cells was examined after 24-hour incubation in media, containing TRAIL (50 ng/ml) and the indicated doses of C12. Viable cells remaining after the treatment were determined as a function of mitochondrial activity of living cells according to XTT-based toxicology assay kit (Sigma) and are shown as a percentage of viable untreated cells.
To test this hypothesis, we examined the effect of C12 in vitro on the activity of TRAIL against A549 cell line derived from a cancer sample of the human lung.
(§1) Cytotoxicity was determined by using the XTT-based toxicology assay kit (Sigma, St. Louis, Miss.) in accordance with the manufacturer's instructions. For some experiments, to confirm the apoptotic nature of toxicity, cells were analyzed using protocols and instructions of the Annexin V-FITC apoptosis detection kit (Biovision, Mountain View, Calif.). In addition, caspase 3, 8 and 9 activities were determined by colorimetric assays (R&D System), and the data are expressed as fold increases compared to the values of untreated or control-treated cells (n=5).

The subject of a further data set is sXBP1 (UPR). The data set can be described thus: RT-PCR assay of spliced XBP1 mRNA (sXBP1) in macrophages. The format is cell-based, mouse. Particulars: FIG. 1D and 1E. The text has this:
FIG. 1: C12 induces the UPR in mammalian cells. (A and B). Comparison of the macrophage responsiveness to P. aeruginosa (P.a.), S. typhimurium (S.t), and S. aureus (S.a.). RT-PCR assay of XBP1 (A) and Western blot analysis (B) of p38, its phosphorylated form (p-p38) as well as phosphorylated forms of PERK (p-PERK) and eIF2α (p-eIF2α) in cell extracts after treatment with bacteria are shown. (C) Macrophages were stimulated with P. aeruginosa wild type (wt) or lasI mutant (ΔlasI), and cell extracts (total RNA or total protein) were prepared and analyzed as in (A and B). […] (F) Total RNA was prepared from lung of mice after inoculation of vehicle (-) or (C12) and analyzed in (D). […]
Among key biochemical signatures of the multicomponent ER stress pathway, known as the unfolded protein response (UPR), are the phosphorylation of the α-subunit of eukaryotic translation initiation factor-2 (eIF2α) and activation of the transcription factor XBP1/Hac1 (X-box binding protein-1 in metazoans and homologous to ATF/CREB in yeast, respectively) ^11. […] To initiate our studies, we exposed bone marrow-derived macrophages (BMDM) to these bacteria, and macrophage responsiveness was analyzed for biochemical markers of the UPR and the phosphorylation of the mitogen-activated protein kinase p38, as a common marker of TLR pathways. […]

Data set [1] relates to primary human hepatocytes. Briefly: Viability and apoptosis of primary human hepatocytes from normal donors. The format is cell-based. Here is the method:
FIG. 8: Safety and pro-apoptotic. activity of (C12). Cells were incubated with TRAIL, (C12), […] (Bor) or a combination of TRAIL and (C12) or Bor as indicated, and cell viability (top panels) or the cleavage of PARP (bottom panels) was determined. (A) Lung cancer cell line A549. (B) Primary human hepatocytes from normal donor.
Therefore, to assess a potential utility of C12 for anti-cancer therapy, we compared the effects of these two compounds—(C12) and bartezomid (Bor)—on TRAIL-mediated apoptosis in cancerous A549 cells and primary human hepatocytes.
Cancer and normal cell culture. Lung cancer cell line A549 and colon cancer cell line HT29 were purchased from ATCC. Breast cancer cell line MDA-MB-468 was received from J. C. Reed (The Burnham Institute, La Jolla, Calif.). Cell lines were maintained in growth medium (GM): DMEM medium (4.5 g/l glucose) supplemented with 10% FBS (HyClone, Logan, Utah), L-glutamine, penicillin/streptomycin and nonessential ammo acids (Invitrogen, Carlsbad, Calif.). Normal human bronchial epithelial (NHBE) cells and normal human mammary epithelial (NHME) cells were obtained from Cambrex (East Rutherford, N.J.) and cultured as recommended by the manufacturer. Normal human colon smooth muscle cells were obtained from ScienCell Research Lab (San Diego, Calif.) and cultured as recommended by the manufacturer. Primary cultures of human hepatocytes (freshly plated; not cryopreserved) and culture medium were obtained from Celsis In Vitro Technologies (Baltimore, Md.). Upon receipt of the cells, the medium was gently aspirated from each well and replenished with InVitroGRO HI medium supplemented with Torpedo Antibiotic Mix (Celsis), and the plates were kept in a 5% CO2, at 37° C. in an incubator at saturating humidity. After 2-4 h, cells were stimulated as described in the text and FIG. legends.
as §1

The next data set relates to cancerous cells. The data set can be described thus: Sensitization of cancerous cells to TRAIL-mediated apoptosis (SAR panel). The format is cell-based. The following applies: a number of cancerous cells. From the text:
Since (C12) is a prototypic member of the 3-oxo-AHL family, the structure-activity-relation (SAR) investigations were warranted to determine generic structural features of AHL, which are required for a cancer-stop and cancer preventing activity as well as for activation of the UPR. To address this questions, a set of AHLs and their analogs were synthesized (see List of AHLs and analogs), and the biological activity of ail compounds were examined on a panel of cancerous and normal cells. The prototypic examples of biochemical data for the selected analogs are shown in FIG. 9 and FIG. 10, whereas Table 2 summarizes the SAR studies for all compounds.
(§2) Cell stimulation. In all experiments, BMDM were stimulated with LPS (100 ng/ml), AHL (10-25 μM; usually BMDM and primary macrophages were stimulated by 25 μM of C12) or their combination as indicated in the figure legends. If not indicated, cancer and normal cells were stimulated with 40 ng/ml of TNFα, 20 ng/ml TRAIL and 10 μM (in case of cancer cells) or 25 μM (in case of normal cells) of AHL.

Another data set concerns cancer and normal cells. Briefly: XTT-based viability of cancer and normal cells grown 18 h (FIG. 12). The data set is classed as cell-based. Particulars: TRAIL alone or the same doses of C12 without TRAIL. The protocol: FIG. 12. (C12) promotes the TRAIL-mediated killing of cancer cells, a), c) Western blot analysis of PARP cleavage in cancer or normal cells treated for 3 h with TRAIL, (C12) or a combination of both, as indicated, b), d) XTT-based assay monitoring the viability of cancer and normal cells grown for 18 h in media containing TRAIL and the indicated doses of (C12). Cell survival was ˜100% in control samples (untreated cells) as well as in samples incubated with TRAIL alone or the same doses of (C12) without TRAIL.
Cancer and normal cell culture. Lung cancer cell line A549 and colon cancer cell line HT29 were purchased from ATCC. Breast cancer cell line MDA-MB-468 was received from J. C. Reed (The Burnham Institute, La Jolla, Calif.). […]
as §1

For data set [2], the system named is TRAIL-treated lung cancer cells. Briefly: Toxicity against TRAIL-treated lung cancer cells. The data set is classed as cell-based. The protocol:
Considering the potential inherent pharmacokinetic liabilities associated with C12, a small series of compound (C12) analogues was tested against bone marrow-derived macrophages and TRAIL-treated lung cancer cells.
Cancer and normal cell culture. Lung cancer cell line A549 and colon cancer cell line HT29 were purchased from ATCC. Breast cancer cell line MDA-MB-468 was received from J. C. Reed (The Burnham Institute, La Jolla, Calif.). Cell lines were maintained in growth medium (GM): DMEM medium (4.5 g/l glucose) supplemented with 10% FBS (HyClone, Logan, Utah), L-glutamine, penicillin/streptomycin and nonessential ammo acids (Invitrogen, Carlsbad, Calif.). […]
as §1

For data set [3], the system named is bone marrow-derived macrophages (BMDM). The data set can be described thus: Responses of bone marrow-derived macrophages to AHLs (toxicity, Western blot). The format is cell-based, mouse. Here is the method:
FIG. 13. AHL-mediated inhibition of inflammation-induced NF-κB signaling is sufficient for rendering tumors susceptible to TRAIL-induced apoptosis. a) Western blot analysis of PARP cleavage in cancer cells stimulated for 3 h with TRAIL or its combination with different AHLs as indicated, b) Western blot analysis of PARP cleavage as well as phosphorylated forms of eIF2α and p38 in extracts from bone marrow-derived macrophages (BMDM) stimulated with (C12) or (3-N2), i.e., (S)-(3-N2), as indicated, c) Western blot analysis of PARP cleavage and temporal profiles of IκBα expression in BMDM extracts prepared after treatment with LPS or its combination with (C12) or (3-N2). d) Inhibitory effect of (C12) and its derivatives on LPS-induced TNF production in BMDM. e) Lung cancer cells were exposed to (3-N2) (10 μM), TRAIL (0.5 ng/ml), TNF (20 ng/ml) or their combinations as indicated. After 2 h, cell lysates were prepared and analyzed by Western blot for PARP cleavage, IκBα and actin.
Mice, bone marrow-derived macrophages and other cell culture, C57BL/6 mice were purchased from the Jackson Laboratory (Bar Harbor, Me.). Bone marrow-derived macrophages (BMDM) and murine embryonic fibroblasts (MEF) were prepared by using standard protocols that were approved by the TSRI Animal Care and Use Committee. L929/NCTC clone 929 (connective tissue, mouse) cell lines were purchased from ATCC (Manassas, Va.). MEFs and L929 cell line were maintained in GM (see above). BMDM were cultured in 70% GM and 30% L929 conditioned medium. In general, cells (˜60-70% confluence) were incubated in fresh medium for 12-14 h before stimulation.
Antibodies and Western blot analysis. Anti-eIF2α, phospho-eIF2α[…](p-eIF2α), p38, p-p38 (Thr180/Tyr132), p-RelA (Ser536), p-I κB ? 32/36), PARP 20 antibodies were purchased from Cell Signaling; anti-RelA, I κB α, IκBβ were from Santa Cruz Biotechnology. Cellular extracts were prepared and analyzed by Western blot assay as previously described.^E3
as §2

In the case of `CCCCCCCCCC(=O)CC(=O)N[C@@H]1CCOC1=O` [Compound 2], in the data set with A549 cell line (C12 1 μM or 25 μM, C12R 25 μM, no TRAIL), the “cell growth and viability, compound alone” value was “practically unchanged”. Further, the “cell growth and viability, combination with TRAIL” value in the data set on A549 cell line (TRAIL (50 ng/ml) and C12R (25 μM)) is “practically unchanged”. Moreover, the “induction of sXBP1 / activation of the UPR” value with sXBP1 (UPR) is reported as “ineffective”.
As for `CC(C)C[C@H](NC(=O)[C@H](Cc1ccccc1)NC(=O)c1cnccn1)B(O)O` [Bor, bortezomib, reference compound], the “sensitivity of A549 cells to TRAIL in the presence of compound” value in the data set with A549 cell line (FIG. 8A) is recorded as “comparable increase in sensitivity”. For the same compound, in data set [1] (FIG. 8B), the “toxicity and apoptosis in hepatocytes in the presence of TRAIL” value was “substantially enhanced”; the “toxicity toward hepatocytes, drug alone” value was “relatively low levels of toxicity”.
On to `[N-]=[N+]=NCCCCCCCCCC1(CC(=O)N[C@H]2CCOC2=O)N=N1` [Compound 16], for which the “sensitization of cancerous cells to TRAIL-mediated apoptosis” value (shortened to “sensitization of cancerous cells”) with cancerous cells is listed as “strongly sensitize”.
Take “TRAIL: recombinant human tumor necrosis factor-related apoptosis-inducing ligand, purchased from R&D System”: in the data set with cancer and normal cells, the Cell survival is about 100%. For the same compound, the “viability and growth, TRAIL alone” value in the data set with A549 cell line (TRAIL 50 ng/ml) is “did not significantly affect”. In data set [1] (FIG. 8B), the “viability of normal human hepatocytes, TRAIL alone” value was “unchanged”.
For `[N-]=[N+]=NCCCCCCCCCC(=O)CC(=O)N[C@H]1CCOC1=O` [Compound 13], in the data set with cancerous cells, the “sensitization of cancerous cells” value is “strongly sensitize”.
For the compound `CCCCCCCCCC1(CC(=O)N[C@H]2CCOC2=O)N=N1` [Compound 15], the “sensitization of cancerous cells” value with cancerous cells is given as “strongly sensitize”. In addition, the “synergistic effects on TRAIL-induced apoptosis in cancer cells” value in data set [2] (compared with bortezomib) is recorded as “comparable with those for an anti-cancer agent bortezomib”. The “toxicity against TRAIL-treated cancer cells” value in data set [2] (in the presence of TRAIL) is “exhibited toxicity”. In data set [1] (hepatocytes from normal donors), the “toxicity to human hepatocytes, compound alone or in combination with TRAIL” value was “non-toxic”. Also, in data set [3] (Western blot, FIG. 13b), the “PARP cleavage in macrophages” value is recorded as “did not induce”, the “eIF2α phosphorylation in macrophages” value was “induced eIF2α phosphorylation in a similar fashion” and the “p38 phosphorylation in macrophages” value is listed as “did not induce”. Also, the toxicity to macrophages entry in data set [3] (bone marrow-derived macrophages) is on record as “nontoxic”. Moreover, the “blocking LPS-induced re-synthesis of IκBα” value in data set [3] (macrophages activated by LPS, FIG. 13c) is “equally effective”.

Values taken from US9765061B2, “Trail enhancers for the selective killing of cancer cells” (The Scripps Research Institute, priority 2013, dated 2017).
